The values that follow come from patent publication US6784198B1, “Arylmethyl-carbonylamino-thiazole derivatives and their use as antitumor agents” (Pharmacia Italia S.p.A., priority 1999, dated 2004).

As for `CC(=O)Nc1nc(CC(=O)Nc2ncc(C(C)C)s2)cs1` [2-[2-(acetylamino)-1,3-thiazol-4-yl]-N-(5-isopropyl-1,3-thiazol-2-yl)acetamide], the melting point fell in the range of 174 to 176 °C.

What is called melting point is the temperature of the solid-liquid transition.
